Target: NLRP3 (purified) (Homo sapiens, UniProt Q96P20, K138A/K142A/R137C)
Test: fluorescence polarization displacement
Type: binding

Sequence of NLRP3 (purified) (Q96P20 136-1034 R137C/K138A/K142A): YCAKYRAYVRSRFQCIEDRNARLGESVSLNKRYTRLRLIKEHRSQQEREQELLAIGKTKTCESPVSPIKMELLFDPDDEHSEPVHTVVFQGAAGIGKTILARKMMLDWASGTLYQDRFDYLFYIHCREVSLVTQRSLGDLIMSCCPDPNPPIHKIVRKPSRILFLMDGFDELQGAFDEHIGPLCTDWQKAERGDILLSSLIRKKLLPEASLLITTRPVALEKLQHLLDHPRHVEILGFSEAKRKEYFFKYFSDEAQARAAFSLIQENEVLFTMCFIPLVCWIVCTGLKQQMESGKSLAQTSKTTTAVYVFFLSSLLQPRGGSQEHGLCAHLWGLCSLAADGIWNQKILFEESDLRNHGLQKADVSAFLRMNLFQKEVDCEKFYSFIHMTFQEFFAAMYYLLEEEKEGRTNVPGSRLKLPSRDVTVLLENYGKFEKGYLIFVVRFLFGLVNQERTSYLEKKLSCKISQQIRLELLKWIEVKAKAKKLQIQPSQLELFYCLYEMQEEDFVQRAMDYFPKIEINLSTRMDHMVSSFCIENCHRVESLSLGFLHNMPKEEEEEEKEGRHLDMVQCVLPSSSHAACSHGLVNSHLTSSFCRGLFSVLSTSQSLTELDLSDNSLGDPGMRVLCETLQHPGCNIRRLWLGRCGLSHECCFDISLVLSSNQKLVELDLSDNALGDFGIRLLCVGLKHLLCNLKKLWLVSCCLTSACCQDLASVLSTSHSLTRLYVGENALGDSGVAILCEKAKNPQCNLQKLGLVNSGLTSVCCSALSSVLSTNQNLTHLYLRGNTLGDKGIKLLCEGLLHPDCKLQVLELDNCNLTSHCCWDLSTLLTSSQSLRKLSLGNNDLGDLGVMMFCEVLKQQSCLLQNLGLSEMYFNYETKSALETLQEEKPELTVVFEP

IC50: 19.3 ± 2.2 nM
SMILES: O=C(CN1C[C@@H](C(F)(F)F)c2cc(I)ccc2C1=O)Nc1ncc(F)cn1 [TN-783, N-(5-fluoropyrimidin-2-yl)-2-[(4s)-6-iodo-1-oxo-4-(trifluoromethyl)-3,4-dihydroisoquinolin-2-yl]acetamide]

— article doi:10.1101/2025.10.06.680810v1 (biorxiv, 2025)
